Marks after values point to notes of the source that are not given here.
Tests used:
human U2OS cells = test: Induction of DNA breakage, γ-H2AX immunofluorescence; type: cell-based; details: 100 μM, 24 h, FIG. 13
Source text: Maintenance of genome integrity is essential for homeostasis and survival as impaired DNA damage response may predispose to grave pathologies such as neurodegenerative and immunodeficiency syndromes, cancer and premature aging (Mistrik et al., 2009). The potential effect of compound 12 on stimulation of DNA breakage was thus further estimated through analysis of phosphorylated histone H2AX (gamma-H2AX) quantified by optimized automated single-cell image analysis (Mistrik et al., 2009). The compound 12 was tested in concentration of 100 μM, the highest concentration accessible due to the compound solubility. Induction of DNA breakage was tested using human U2OS cells. The U2OS cells were cultivated at standard cultivation condition (37° C., 5% CO2). As a positive control, cells were irradiated by roentgen radiation (Baltobloc) (0.5 Gy-2 Gy), one hour later fixed and stained for γ-H2AX, a well established marker of the DNA damage. Parallel samples were treated by compound 12 for 24 hours, fixed and also stained for γ-H2AX. Microscopy analysis followed by computer based signal quantification was performed as described previously (Mistrik et al., 2009).

[1] = tested on: Arabidopsis (ecotype Col-0); test: Drenching application, morphological and yield traits of Arabidopsis in soil; type: in vivo
Experimental: To test the effect on wild-type plants Arabidopsis (ecotype Col-0) was grown in soil in controlled conditions in a growth chambre (16 hours light/8 hours dark; light intensity 120 […]; 22° C.; 60% humidity). In the stage of app. the middle of the principal growth stage 1 and the beginning of principal growth stage 5 (according to Arabidopsis growth stages described by Boyes et al., 2001) 1-10 mL of the compound 12 was applied regulary every third day in 0.1 and 1 μM concentration in different application rates (experiment 1-1 mL of 1 μM compound 12 water solution 12-times; experiment 2-10 mL of 0.1 and 1 μM compound 12 water solution 1-, 3- and 5-times) by drenching to each plant pot. DMSO (0.01%) was used as a solvent control. The plants were grown till the end of the generative stage and then morphological parametres (primary inflorescence stem length, number of auxiliary branches, number of lateral branches, fresh shoot biomass, number of flowers, number of siliques) and the seed yield were recorded.

COc1cccc(Nc2nc(Cl)nc3c2ncn3C2CCCCO2)c1 (stereo not drawn) [compound 12, 2-chloro-6-(3-methoxyanilino)-9-(tetrahydropyran-2-yl)purine]
DNA damage (γ-H2AX) (human U2OS cells): no effect on DNA damage
No. of auxiliary branches ([1]; 0.1 μM, application rate 1x): 4.06 ± 1.3
No. of auxiliary branches (% of control) ([1]; 0.1 μM, application rate 1x): (113%)
No. of flowers ([1]; 0.1 μM, application rate 1x): 116.12 ± 70
No. of flowers (% of control) ([1]; 0.1 μM, application rate 1x): (153%)*
No. of lateral branches ([1]; 0.1 μM, application rate 1x): 8.59 ± 3.1
No. of lateral branches (% of control) ([1]; 0.1 μM, application rate 1x): (182%)***
No. of siliques ([1]; 0.1 μM, application rate 1x): 133.94 ± 47
No. of siliques (% of control) ([1]; 0.1 μM, application rate 1x): (100%)
fresh shoot biomass ([1]; 0.1 μM, application rate 1x): 1.18 ± 0.4 g
fresh shoot biomass (% of control) ([1]; 0.1 μM, application rate 1x): (108%)
primary inflorescence stem length ([1]; 0.1 μM, application rate 1x): 32.78 ± 5.5 cm
primary inflorescence stem length (% of control) ([1]; 0.1 μM, application rate 1x): (98%)
seed yield per plant ([1]; 0.1 μM, application rate 1x): 0.30 ± 0.1 g
seed yield per plant (% of control) ([1]; 0.1 μM, application rate 1x): (102%)
No. of auxiliary branches ([1]; 0.1 μM, application rate 3x): 3.82 ± 0.6
No. of auxiliary branches (% of control) ([1]; 0.1 μM, application rate 3x): (106%)
No. of flowers ([1]; 0.1 μM, application rate 3x): 91.23 ± 50.1
No. of flowers (% of control) ([1]; 0.1 μM, application rate 3x): (120%)
No. of lateral branches ([1]; 0.1 μM, application rate 3x): 8.35 ± 3.3
No. of lateral branches (% of control) ([1]; 0.1 μM, application rate 3x): (177%)***
No. of siliques ([1]; 0.1 μM, application rate 3x): 154.29 ± 25.6
No. of siliques (% of control) ([1]; 0.1 μM, application rate 3x): (115%)
fresh shoot biomass ([1]; 0.1 μM, application rate 3x): 1.16 ± 0.2 g
fresh shoot biomass (% of control) ([1]; 0.1 μM, application rate 3x): (106%)
primary inflorescence stem length ([1]; 0.1 μM, application rate 3x): 39.6 ± 3.8 cm
primary inflorescence stem length (% of control) ([1]; 0.1 μM, application rate 3x): (119%)***
seed yield per plant ([1]; 0.1 μM, application rate 3x): 0.31 ± 0.1 g
seed yield per plant (% of control) ([1]; 0.1 μM, application rate 3x): (106%)
No. of auxiliary branches ([1]; 0.1 μM, application rate 5x): 3.94 ± 1.1
No. of auxiliary branches (% of control) ([1]; 0.1 μM, application rate 5x): (109%)
No. of flowers ([1]; 0.1 μM, application rate 5x): 99.59 ± 59.3
No. of flowers (% of control) ([1]; 0.1 μM, application rate 5x): (131%)
No. of lateral branches ([1]; 0.1 μM, application rate 5x): 9.82 ± 4.4
No. of lateral branches (% of control) ([1]; 0.1 μM, application rate 5x): (208%)***
No. of siliques ([1]; 0.1 μM, application rate 5x): 141.24 ± 31.7
No. of siliques (% of control) ([1]; 0.1 μM, application rate 5x): (105%)
fresh shoot biomass ([1]; 0.1 μM, application rate 5x): 1.18 ± 0.3 g
fresh shoot biomass (% of control) ([1]; 0.1 μM, application rate 5x): (108%)
primary inflorescence stem length ([1]; 0.1 μM, application rate 5x): 38.61 ± 5.2 cm
primary inflorescence stem length (% of control) ([1]; 0.1 μM, application rate 5x): (116%)***
seed yield per plant ([1]; 0.1 μM, application rate 5x): 0.35 ± 0.1 g
seed yield per plant (% of control) ([1]; 0.1 μM, application rate 5x): (120%)
No. of auxiliary branches ([1]; 1 μM, application rate 1x): 4.29 ± 1.5
No. of auxiliary branches (% of control) ([1]; 1 μM, application rate 1x): (119%)
No. of flowers ([1]; 1 μM, application rate 1x): 139.65 ± 51.7
No. of flowers (% of control) ([1]; 1 μM, application rate 1x): (184%)***
No. of lateral branches ([1]; 1 μM, application rate 1x): 13.35 ± 4.7
No. of lateral branches (% of control) ([1]; 1 μM, application rate 1x): (283%)***
No. of siliques ([1]; 1 μM, application rate 1x): 134.82 ± 31.1
No. of siliques (% of control) ([1]; 1 μM, application rate 1x): (100%)
fresh shoot biomass ([1]; 1 μM, application rate 1x): 1.17 ± 0.3 g
fresh shoot biomass (% of control) ([1]; 1 μM, application rate 1x): (107%)
primary inflorescence stem length ([1]; 1 μM, application rate 1x): 32.66 ± 3.8 cm
primary inflorescence stem length (% of control) ([1]; 1 μM, application rate 1x): (98%)
seed yield per plant ([1]; 1 μM, application rate 1x): 0.37 ± 0.1 g
seed yield per plant (% of control) ([1]; 1 μM, application rate 1x): (126%)
No. of auxiliary branches ([1]; 1 μM, application rate 3x): 4.29 ± 1.1
No. of auxiliary branches (% of control) ([1]; 1 μM, application rate 3x): (119%)*
No. of flowers ([1]; 1 μM, application rate 3x): 118.53 ± 36.6
No. of flowers (% of control) ([1]; 1 μM, application rate 3x): (156%)***
No. of lateral branches ([1]; 1 μM, application rate 3x): 13.50 ± 3.9
No. of lateral branches (% of control) ([1]; 1 μM, application rate 3x): (286%)***
No. of siliques ([1]; 1 μM, application rate 3x): 155.29 ± 44.1
No. of siliques (% of control) ([1]; 1 μM, application rate 3x): (116%)
fresh shoot biomass ([1]; 1 μM, application rate 3x): 1.23 ± 0.3 g
fresh shoot biomass (% of control) ([1]; 1 μM, application rate 3x): (113%)
primary inflorescence stem length ([1]; 1 μM, application rate 3x): 39.07 ± 3.2 cm
primary inflorescence stem length (% of control) ([1]; 1 μM, application rate 3x): (117%)***
seed yield per plant ([1]; 1 μM, application rate 3x): 0.36 ± 0.1 g
seed yield per plant (% of control) ([1]; 1 μM, application rate 3x): (122%)
No. of auxiliary branches ([1]; 1 μM, application rate 5x): 4.50 ± 1.3
No. of auxiliary branches (% of control) ([1]; 1 μM, application rate 5x): (125%)
No. of flowers ([1]; 1 μM, application rate 5x): 143.56 ± 66.3
No. of flowers (% of control) ([1]; 1 μM, application rate 5x): (189%)***
No. of lateral branches ([1]; 1 μM, application rate 5x): 16.44 ± 6.1
No. of lateral branches (% of control) ([1]; 1 μM, application rate 5x): (349%)***
No. of siliques ([1]; 1 μM, application rate 5x): 220.00 ± 37.4
No. of siliques (% of control) ([1]; 1 μM, application rate 5x): (164%)***
fresh shoot biomass ([1]; 1 μM, application rate 5x): 1.81 ± 0.3 g
fresh shoot biomass (% of control) ([1]; 1 μM, application rate 5x): (166%)***
primary inflorescence stem length ([1]; 1 μM, application rate 5x): 44.66 ± 5.9 cm
primary inflorescence stem length (% of control) ([1]; 1 μM, application rate 5x): (134%)***
seed yield per plant ([1]; 1 μM, application rate 5x): 0.33 ± 0.1 g
seed yield per plant (% of control) ([1]; 1 μM, application rate 5x): (111%)
overall shoot biomass ([1]; experiment 1: 1 mL of 1 μM, 12-times, drenching, FIG. 8): stimulation of the overall shoot biomass
increase of fresh shoot biomass compared to control ([1]; experiment 2, higher doses): 6-22%
increase of number of auxiliary branches compared to control ([1]; experiment 2, higher doses): 6-25%
increase of number of flowers compared to control ([1]; experiment 2, higher doses): 20-89%
increase of number of lateral branches compared to control ([1]; experiment 2, higher doses): 77-249%
increase of number of siliques compared to control ([1]; experiment 2, higher doses): 5-66%
increase of primary inflorescence stem length compared to control ([1]; experiment 2, higher doses): 16-34%
increase of seed yield compared to control ([1]; experiment 2, higher doses): 6-26%

Source: patent US10662194B2, “Substituted 6-anilino-9-heterocyclylpurine derivatives for inhibition of plant stress” (UNIVERZITA PALACKEHO V OLOMOUCI, priority 2014, dated 2020)
